Assay results published in patent publication US20050245465A1, “Compounds for treating Alzheimer's disease and for inhibiting beta-amyloid peptitde production” (priority 2004, published 2005).
Entries after “also recorded” stand apart in the source; their conditions may differ.

Legend:
[1] = test system: CHO cells expressing human APP; experiment: Secreted Aβ40/Aβ42 ELISA in medium of CHO-APP cells; format: cell-based, Chinese hamster; design: key to Aβ42-lowering activity: Aβ42-lowering activity (“Yes”); no profound effects (“No”); non-determined (“ND”); Ginsenosides that affected cell viability are indicated as “Cytotoxic.”; details: for Aβ42-lowering activity: Tables 1-3; for inhibitory effects on Aβ40 and Aβ42 production: 8 hours of incubation, ginsenosides from white ginseng
Experimental: The CHO cells were treated with the indicated compounds (at 50 μg/ml) for 8 hrs. Aβ42 levels in the medium were measured by ELISA and normalized to intracellular full-length APP.
The potential effects of ginsenosides and their analogues in treating AD were examined. First, a number of ginsenosides were screened based on their effects on Aβ generation. The effects of various ginsenosides on Aβ (e.g., Aβ40 and Aβ42) production was initially accessed by incubating the Chinese hamster ovary (CHO) cells expressing human APP(CHO-APP cells) with each ginsenoside purified from unprocessed ginseng (known as “white ginseng”). These representative ginsenosides included Rb1, Rb2, Rc, Rd, Re, Re, Rg1 and Rg2 and differ in their side chains and sugar moieties.
After 8 hours of incubation, the media were collected and the levels of secreted Aβ40 and Aβ42 were determined by ELISA.
Steaming ginseng at high temperature gave rise to additional ginsenosides with enhanced pharmacological activity, including (20S)Rg3, Rk1 and Rg5 (22-25). Next, the effects of these heat-processing derived ginsenosides (e.g., (20S)Rg3, Rh1, Rh2, Rk1, Rg6, Rg5) on Aβ40 and Aβ42 generation were tested. […] In contrast, Aβ42 levels were not affected by (20R)Rg3, Rh1, and Rg6. Aβ40 levels were not changed by treatment with any of the ginsenosides tested. The potency of Aβ42-lowering activity was highest with Rk1 and (20S)Rg3. […] The secretion of Aβ40 was affected by treatment with Rk1 only at very high concentration (˜100 μM) and cell viability was not affected by treatment of Rk1 under these conditions (up to 100 μM, 8 hour treatment; data not shown). […] Overnight treatment with Rgk351, Rk1, and Rg5 also reduce Aβ42 production in CHO-APP cells (FIG. 12B). […] These studies provide a structure-activity relationship between the chemical structures of ginsenosides and Aβ42-lowering activity, further providing the basis for designing additional Aβ42-lowering analogues as well as for defining a class of compounds that harbor Aβ42-lowering activity.

[2] = test system: Neuro2a cells expressing the human Swedish mutant form of APP; experiment: Aβ generation in Neuro2a-SW cells; format: cell-based, mouse; details: for levels of Aβ42 / production of Aβ42: Neuro2a-SW, also CHO cells expressing wild-type human APP
Excerpt: FIG. 16 depicts the effects of two major metabolites of ginsenosides, including 20(S)-protopanaxatriol (PPT) and 20(S)-protopanaxadiol (PPD) on Aβ42 generation. 20(S)-panaxatriol (PT) and 20(S)-panaxadiol (PD) are the artificial derivatives of PPT and PPPD, respectively.
Ginsenosides are metabolized by human intestinal bacteria after oral administration of ginseng extract (Kobayashi K., et al., Metabolism of ginsenoside by human intestinal bacteria [II] Ginseng Review 1994; 18: 10-14; Hasegawa H., et al., Main ginseng saponin metabolites formed by intestinal bacteria. Planta Med. 1996; 62: 453-457.). Therefore, the effects of two major metabolites of ginsenosides, including 20(S)-protopanaxatriol (PPT) and 20(S)-protopanaxadiol (PPD) on Aβ42 generation were tested. 20(S)-panaxatriol (PT) and 20(S)-panaxadiol (PD) are the artificial derivatives of PPT and PPPD, respectively.

[3] = test system: CHO-APP/PS1 cells; experiment: Secreted Aβ40/Aβ42 ELISA in CHO-APP/PS1 cells; format: cell-based, Chinese hamster; details: 50 μM, 8 hrs
Experimental: FIG. 10 depicts the effects of native ginsenosides on Aβ42 production. CHO cells stably transfected with human APP695 together with either wild-type (A, CHO-APP/PS1 cells) or ΔE9 FAD mutant (B, CHO-APP/ΔE9PS1 cells) forms of PS1 were used. Cells were treated with the indicated compounds (at 50 μM) for 8 hrs. Levels of secreted Aβ40 and Aβ42 in the medium were determined by ELISA and normalized to intracellular full-length APP. In CHO-APP/PS1 cells, average Aβ amounts in control samples were 320 pM for Aβ40 and 79 pM for Aβ42. The relative levels of Aβ and Aβ42 were normalized to values obtained from non-treated and vehicle-treated cells and are shown as % to control+s.d.). One of three representative experiments are shown.
CHO-APP/PS1 (A) and CHO-APP/ΔE9PS1 (B) cells were treated with the indicated compounds at 50 μM for 8 hrs and the levels of secreted Aβ40 and Aβ42 were determined as described in FIG. 1. […] The PS1-ΔE9 FAD mutation diminished the Aβ42 response to Rk1 treatment (B).

[4] = test system: γ-secretase; experiment: Cell-free generation of intracellular domains (AICD, NICD, p75-ICD) in membrane fractions of 293 cells; format: biochemical; details: membrane fractions from 293 cells overexpressing APP, Notch-ΔE or p75-ΔE
Experimental: Membrane fractions isolated from 293 cells overexpressing either APP (A), Notch-ΔE (B) or p75-ΔE (C) and incubated in the presence of indicated compounds: Compound E (CpdE, general γ-secretase inhibitor), Rgk351, Rk1 and sulindac sulfide (SS).
Since the effect of Rk1 was rather selective to Aβ42 (but not Aβ40) in a cell-based assay, the question of whether Rk1 affects other γ-secretase-mediated cleavage events, including the generation of AICD resulted from a transmembrane cleavage of APP distal from either Aβ40 or Aβ42 site, and γ-secretase-mediated intramembrane cleavage of Notch1 or p75 neurotrophin receptor (p75NTR) to yield Notch1 or p75NTR intracellular domains (NICD or p75-ICD, respectively) was tested. The cell-free generation of AICD, NICD and p75-ICD was not affected by incubation with Rgk351 or Rk1 (FIG. 5).

[5] = test system: γ-secretase; experiment: Cell-free γ-secretase assay (CHAPSO-solubilized membrane fractions, Aβ ELISA); format: biochemical; details: cell-free γ-secretase assay, partially purified γ-secretase complex; 100 μM
Experimental: (A) CHAPSO-solubilized membrane fractions were incubated with recombinant γ-secretase substrates together with the indicated compounds (at 100 μM) and the levels of Aβ42 and Aβ40 were determined by ELISA as described (27-29). (B) Dose-response of Aβ40 and Aβ42-lowering activity of Rk1 and (20S)Rg3 in a cell-free γ-secretase assay.
Next, the inhibitory effects of Rk1 and (20S)Rg3 on Aβ generation in an in vitro γ-secretase assay was studied. […] In contrast, naproxen, an NSAID without Aβ42-lowering activity, had no effects on Aβ42 production (FIG. 15A).

Structure (SMILES): CC(C)=CCCC(C)(O)[C@H]1CC[C@]2(C)[C@@H]1[C@H](O)C[C@@H]1[C@@]3(C)CC[C@H](O)C(C)(C)[C@@H]3CC[C@]12C (stereo in doubt) [PPD, Protopanaxadiol]
- Aβ42-lowering activity [1]: No
- inhibitory effects on Aβ40 or Aβ42 generation [2]: did not confer any inhibitory effects

Structure (SMILES): CC(C)=CCC[C@@](C)(O)[C@H]1CC[C@]2(C)[C@@H]1[C@H](O)C[C@@H]1[C@@]3(C)CC[C@H](O[C@@H]4O[C@H](CO)[C@@H](O)[C@H](O)[C@H]4O[C@@H]4O[C@H](CO)[C@@H](O)[C@H](O)[C@H]4O)C(C)(C)[C@@H]3CC[C@]12C [(20R)Rg3]
- generation of Aβ42 (Aβ42 levels in the medium, ELISA, normalized to intracellular full-length APP) ([1]; CHO cells stably transfected with human APP695, 50 μg/ml, 8 hrs): reduce
- Aβ42-lowering activity [1]: Yes
- secretion of Aβ42 (initial screening) ([1]; heat-processing derived ginsenosides): not affected
- potency of Aβ42-reducing activity (order) [3]: Rk1>/=(20S)Rg3>Rg5>(20R)Rg3

Structure (SMILES): C[C@H](NC(=O)Cc1cc(F)cc(F)c1)C(=O)N[C@H]1N=C(c2ccccc2)c2ccccc2N(C)C1=O [Compound E]
- cell-free generation of AICD, NICD and p75-ICD [4]: Very low amounts; also recorded: efficiently inhibited

Structure (SMILES): CC1(C)CCC[C@](C)([C@H]2CC[C@]3(C)[C@@H]2[C@H](O)C[C@@H]2[C@@]4(C)CC[C@H](O)C(C)(C)[C@@H]4CC[C@]23C)O1 [PD, 20(S)-panaxadiol]
- inhibitory effects on Aβ40 or Aβ42 generation [2]: did not confer any inhibitory effects

Structure (SMILES): CC(C)=CCC[C@](C)(O)[C@H]1CC[C@]2(C)[C@@H]1[C@H](O)C[C@@H]1[C@@]3(C)CC[C@H](O)C(C)(C)[C@@H]3[C@@H](O)C[C@]12C [PPT, Protopanaxatiol]
- Aβ42-lowering activity [1]: Yes
- levels of Aβ42 [2]: without affecting
- production of Aβ42 [2]: reduced

Structure (SMILES): CC1(C)CCC[C@](C)([C@H]2CC[C@]3(C)[C@@H]2[C@H](O)C[C@@H]2[C@@]4(C)CC[C@H](O)C(C)(C)[C@@H]4[C@@H](O)C[C@]23C)O1 [PT, 20(S)-panaxatriol]
- levels of Aβ42 [2]: without affecting
- production of Aβ42 [2]: reduced

Structure (SMILES): CC(C)=CCC[C@](C)(O[C@@H]1O[C@H](CO[C@@H]2O[C@H](CO)[C@@H](O)[C@H](O)[C@H]2O)[C@@H](O)[C@H](O)[C@H]1O)[C@H]1CC[C@]2(C)[C@@H]1[C@H](O)C[C@@H]1[C@@]3(C)CC[C@H](O[C@@H]4O[C@H](CO)[C@@H](O)[C@H](O)[C@H]4O[C@@H]4O[C@H](CO)[C@@H](O)[C@H](O)[C@H]4O)C(C)(C)[C@@H]3CC[C@]12C [Rb1]
- inhibitory effects on Aβ40 and Aβ42 production [1]: None
- Aβ42-lowering activity [1]: No

Structure (SMILES): CC(C)=CCC[C@](C)(O[C@@H]1O[C@H](CO[C@@H]2OC[C@H](O)[C@H](O)[C@H]2O)[C@@H](O)[C@H](O)[C@H]1O)[C@H]1CC[C@]2(C)[C@@H]1[C@H](O)C[C@@H]1[C@@]3(C)CC[C@H](O[C@@H]4O[C@H](CO)[C@@H](O)[C@H](O)[C@H]4O[C@@H]4O[C@H](CO)[C@@H](O)[C@H](O)[C@H]4O)C(C)(C)[C@@H]3CC[C@]12C [Rb2]
- inhibitory effects on Aβ40 and Aβ42 production [1]: None
- Aβ42-lowering activity [1]: No

Structure (SMILES): CC(C)=CCC[C@](C)(O[C@@H]1O[C@H](CO[C@@H]2OC[C@@H](O)[C@H](O)[C@H]2O)[C@@H](O)[C@H](O)[C@H]1O)[C@H]1CC[C@]2(C)[C@@H]1[C@H](O)C[C@@H]1[C@@]3(C)CC[C@H](O[C@@H]4O[C@H](CO)[C@@H](O)[C@H](O)[C@H]4O[C@@H]4O[C@H](CO)[C@@H](O)[C@H](O)[C@H]4O)C(C)(C)[C@@H]3CC[C@]12C [Rb3]
- Aβ42-lowering activity [1]: No

Structure (SMILES): CC(C)=CCC[C@](C)(O[C@@H]1O[C@H](CO)[C@@H](O)[C@H](O)[C@H]1O)[C@H]1CC[C@]2(C)[C@@H]1[C@H](O)C[C@@H]1[C@@]3(C)CC[C@H](O)C(C)(C)[C@@H]3[C@@H](O[C@@H]3O[C@H](CO)[C@@H](O)[C@H](O)[C@H]3O)C[C@]12C [Rg1]
- inhibitory effects on Aβ40 and Aβ42 production [1]: None
- Aβ42-lowering activity [1]: No
- production of Aβ42 in cells (summary statement) ([1]; mammalian cells, in vitro): no amyloid reducing activity in vitro

Structure (SMILES): C=C(CCC=C(C)C)[C@H]1CC[C@]2(C)[C@@H]1[C@H](O)C[C@@H]1[C@@]3(C)CC[C@H](O)C(C)(C)[C@@H]3[C@@H](O[C@@H]3O[C@H](CO)[C@@H](O)[C@H](O)[C@H]3O)C[C@]12C [Rk3]
- Aβ42-lowering activity [1]: No

Structure (SMILES): COc1ccc2cc([C@H](C)C(=O)O)ccc2c1 [naproxen, reference compound]
- Aβ42 generation in vitro [5]: no effects

Structure (SMILES): CSc1ccc(/C=C2/C(C)=C(CC(=O)O)c3cc(F)ccc32)cc1 [sulindac sulfide, reference compound]
- Aβ40 production ([1]; overnight treatment, CHO-APP cells): slightly affected
- Aβ42 generation in vitro [5]: potently inhibited
- cell-free generation of AICD, NICD and p75-ICD [4]: abundantly produced
- cell-free generation of AICD, NICD and p75-ICD ([4]; listed as sulinac sulfide): did not affect
